Activity calls are given as the source filed them. The calls are words filed in the database; no cut-off is given here.

Experiment [1] has as its target Cholinesterase (Equus caballus) (UniProt P81908). Put plainly: Inhibition of equine serum BChE preincubated for 15 mins at 10 uM followed by addition of S-butyrylthiocholine iodide as substrate measured after 30 mins by Ellman's microplate assay.
The target in experiment [2] is Acetylcholinesterase (Electrophorus electricus) (UniProt O42275). Nature of the experiment: Inhibition of electric eel AChE preincubated for 15 mins at 10 uM followed by addition of acetylthiocholine iodide as substrate measured after 30 mins by Ellman's microplate assay.
For experiment [3], the target named is T1, Acetylcholinesterase (Electrophorus electricus, UniProt O42275).
Description: Inhibition of electric eel AChE preincubated for 15 mins followed by addition of acetylthiocholine iodide as substrate measured after 30 mins by Ellman's microplate assay
Experiment [4] addresses T2, Cholinesterase (Equus caballus, UniProt P81908).
Description: Inhibition of equine serum BChE preincubated for 15 mins followed by addition of S-butyrylthiocholine iodide as substrate measured after 30 mins by Ellman's microplate assay
In experiment [5] the target is T1, Acetylcholinesterase. Put plainly: Mixed type inhibition of electric eel AChE preincubated for 15 mins followed by addition of acetylthiocholine iodide as substrate measured after 30 mins by Lineweaver-Burk double reciprocal plot analysis.
Experiment [6] concerns the target T2, Cholinesterase. Put plainly: Mixed type inhibition of equine serum BChE preincubated for 15 mins followed by addition of S-butyrylthiocholine iodide as substrate measured after 30 mins by Lineweaver-Burk double reciprocal plot analysis.

Acetylcholinesterase (Electrophorus electricus), sequence (O42275 24-633 limits assumed): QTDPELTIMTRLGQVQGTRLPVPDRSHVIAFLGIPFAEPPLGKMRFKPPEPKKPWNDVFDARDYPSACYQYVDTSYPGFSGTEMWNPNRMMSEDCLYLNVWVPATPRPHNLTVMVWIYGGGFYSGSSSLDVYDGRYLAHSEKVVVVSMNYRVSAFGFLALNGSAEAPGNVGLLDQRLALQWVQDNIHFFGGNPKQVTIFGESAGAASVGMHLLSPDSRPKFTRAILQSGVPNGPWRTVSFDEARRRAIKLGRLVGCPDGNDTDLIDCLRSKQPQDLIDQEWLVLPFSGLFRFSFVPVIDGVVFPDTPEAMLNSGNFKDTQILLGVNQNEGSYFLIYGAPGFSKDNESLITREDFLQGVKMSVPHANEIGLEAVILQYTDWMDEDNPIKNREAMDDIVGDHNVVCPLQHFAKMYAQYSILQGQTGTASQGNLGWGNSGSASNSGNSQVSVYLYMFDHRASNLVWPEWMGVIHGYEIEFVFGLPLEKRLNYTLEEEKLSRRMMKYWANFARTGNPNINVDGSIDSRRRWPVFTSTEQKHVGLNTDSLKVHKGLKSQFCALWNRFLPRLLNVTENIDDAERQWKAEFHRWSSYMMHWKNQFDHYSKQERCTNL
T1 sequence (O42275 whole entry): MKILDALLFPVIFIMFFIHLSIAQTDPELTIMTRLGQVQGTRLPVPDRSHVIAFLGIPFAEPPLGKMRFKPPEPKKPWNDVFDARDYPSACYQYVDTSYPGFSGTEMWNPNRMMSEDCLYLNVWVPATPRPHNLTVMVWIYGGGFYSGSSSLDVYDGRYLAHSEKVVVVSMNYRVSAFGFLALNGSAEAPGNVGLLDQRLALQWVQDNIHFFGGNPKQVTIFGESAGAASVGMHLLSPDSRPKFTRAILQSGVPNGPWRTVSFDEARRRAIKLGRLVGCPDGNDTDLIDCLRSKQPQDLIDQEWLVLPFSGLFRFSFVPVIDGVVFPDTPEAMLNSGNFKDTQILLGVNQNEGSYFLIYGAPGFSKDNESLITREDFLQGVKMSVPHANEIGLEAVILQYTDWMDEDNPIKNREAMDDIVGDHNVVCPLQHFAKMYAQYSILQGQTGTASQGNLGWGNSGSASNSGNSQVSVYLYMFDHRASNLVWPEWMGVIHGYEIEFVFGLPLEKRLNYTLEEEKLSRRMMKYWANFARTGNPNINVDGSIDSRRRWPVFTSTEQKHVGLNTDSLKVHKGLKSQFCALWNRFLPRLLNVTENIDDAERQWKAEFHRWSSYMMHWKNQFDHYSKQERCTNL
Cholinesterase (Equus caballus), sequence (P81908 whole entry): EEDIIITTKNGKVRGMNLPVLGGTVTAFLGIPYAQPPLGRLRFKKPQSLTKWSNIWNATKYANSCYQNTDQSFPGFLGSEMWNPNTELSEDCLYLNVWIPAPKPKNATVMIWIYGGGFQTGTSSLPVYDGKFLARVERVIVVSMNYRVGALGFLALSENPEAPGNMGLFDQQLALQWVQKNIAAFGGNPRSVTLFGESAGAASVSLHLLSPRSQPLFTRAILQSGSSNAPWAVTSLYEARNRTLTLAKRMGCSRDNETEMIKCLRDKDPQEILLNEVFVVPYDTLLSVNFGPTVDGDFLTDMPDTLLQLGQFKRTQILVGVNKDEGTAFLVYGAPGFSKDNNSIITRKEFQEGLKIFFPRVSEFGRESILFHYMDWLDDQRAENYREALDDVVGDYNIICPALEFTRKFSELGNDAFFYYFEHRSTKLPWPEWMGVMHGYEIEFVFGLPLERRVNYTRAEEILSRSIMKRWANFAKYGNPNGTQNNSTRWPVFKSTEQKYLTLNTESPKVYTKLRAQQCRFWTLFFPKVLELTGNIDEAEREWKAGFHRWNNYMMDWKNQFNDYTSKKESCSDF
T2 sequence (P81908 whole entry): as above

As to `O=C(C1=C(O)/C(=C/c2ccc(F)c(F)c2)CCC1)c1ccccc1`, the inhibition result in experiment [1] was “inactive”. Also, the inhibition entry in experiment [2] is “Active”. For the same molecule, on Acetylcholinesterase [3], the IC50 turned out to be 8.7 µM.
In the same order, the values of `O=C(C1=C(O)/C(=C/c2ccc(Cl)c(Cl)c2)CCC1)c1ccccc1` are “inactive”, “Active” and 9.8 µM.
In the same order, the values of `O=C(C1=C(O)/C(=C/c2ccccc2F)CCC1)c1ccccc1` are “inactive”, “Active” and 6.6 µM.
In the same order, the values of `O=C(C1=C(O)/C(=C/c2cccc(F)c2)CCC1)c1ccccc1` are “inactive”, “Active” and 9.7 µM.
On Cholinesterase [4], `O=C(C1=C(O)/C(=C/c2ccc(O)c(Cl)c2)CCC1)c1ccccc1` came in with an IC50 of 10.6 µM. The inhibition entry in experiment [1] is “Active”. Moreover, the inhibition result in experiment [2] is “inactive”.
With `O=C(C1=C(O)/C(=C/c2ccc(OCCN3CCCCC3)cc2)CCC1)c1ccccc1`, the figures for the IC50 at Cholinesterase [4] and against Acetylcholinesterase [3] were 2.7 µM and 1.6 µM, respectively. For the same molecule, the inhibition entry in experiment [1] and in experiment [2] was “Active” in each case. On Acetylcholinesterase [5], this molecule had a Ki of 1.9 µM.
As for `O=C(C1=C(O)/C(=C/c2ccc(Br)c(Br)c2)CCC1)c1ccccc1`, the inhibition result in experiment [1] was “inactive”. Also, the inhibition entry in experiment [2] is “Active”. This molecule also showed an IC50 on Acetylcholinesterase [3] of 9 µM.
As for `O=C(C1=C(O)/C(=C/c2ccccc2Cl)CCC1)c1ccccc1`, the inhibition result in experiment [1] and in experiment [2] was “inactive” throughout. Moreover, on Acetylcholinesterase [3], the half-maximal inhibitory concentration (IC50) stood at 8.2 µM.
On to `O=C(C1=C(O)/C(=C/c2cccc(Cl)c2)CCC1)c1ccccc1`, for which the inhibition result in experiment [1] and in experiment [2] was “inactive” each time.
For the molecule `O=C(C1=C(O)/C(=C/c2cccc(O)c2)CCC1)c1ccccc1`, the inhibition result in experiment [1] and in experiment [2] was “inactive” in each case.
For `O=C(C1=C(O)/C(=C/c2ccc(OCCN3CCCC3)cc2)CCC1)c1ccccc1`, the figures for the IC50 on Cholinesterase [4] and at Acetylcholinesterase [3] were 2.3 µM and 2 µM, respectively. Also, the inhibition entry in experiment [1] and in experiment [2] was “Active” each time.
As to `COc1ccc(/C=C2\CCCC(C(=O)c3ccccc3)=C2O)cc1O`, the inhibition result in experiment [1] and in experiment [2] was “inactive” each time.
The molecule `O=C(C1=C(O)/C(=C/c2cccc(OCCN3CCCC3)c2)CCC1)c1ccccc1` yielded a Ki on Cholinesterase [6] of 0.2 µM. For the same molecule, the IC50 at Cholinesterase [4] was found to be 0.6 µM; against Acetylcholinesterase [3], 3.5 µM. Moreover, the inhibition result in experiment [1] and in experiment [2] was “Active” throughout.
Turning to `Cc1cccc(/C=C2\CCCC(C(=O)c3ccccc3)=C2O)c1`, the inhibition result in experiment [1] is “inactive”. Further, in experiment [2], the inhibition result is “Active”. This molecule also showed a 50% inhibitory concentration (IC50) against Acetylcholinesterase [3] of 8.6 µM.
With `O=C(C1=C(O)/C(=C/c2cccc3ccccc23)CCC1)c1ccccc1`, the inhibition entry in experiment [1] was “inactive”. In addition, the inhibition entry in experiment [2] was “Active”. Further, at Acetylcholinesterase [3], the 50% inhibitory concentration (IC50) stood at 7.6 µM.
On to `COc1ccc(OC)c(/C=C2\CCCC(C(=O)c3ccccc3)=C2O)c1`, for which the inhibition result in experiment [1] and in experiment [2] was “inactive” each time.
As for `O=C(C1=C(O)/C(=C/c2ccc(Cl)cc2)CCC1)c1ccccc1`, in experiment [1], the inhibition entry is “inactive”. In addition, the inhibition entry in experiment [2] was “Active”. The same molecule registered an IC50 against Acetylcholinesterase [3] of 7.6 µM.
Regarding `COc1cc(/C=C2\CCCC(C(=O)c3ccccc3)=C2O)ccc1O`, the inhibition entry in experiment [1] and in experiment [2] was “inactive” throughout.
For `O=C(C1=C(O)/C(=C/c2ccc(O)c(O)c2)CCC1)c1ccccc1`, on Cholinesterase [4], the concentration for half-maximal inhibition (IC50) is 6.5 µM. Also, the inhibition entry in experiment [1] was “Active”. Besides, the inhibition entry in experiment [2] was “inactive”.
Regarding `O=C(C1=C(O)/C(=C/c2cccs2)CCC1)c1ccccc1`, the inhibition result in experiment [1] was “inactive”. In addition, in experiment [2], the inhibition entry was “Active”. The molecule also returned an IC50 against Acetylcholinesterase [3] of 5.1 µM.
Consider `O=C(C1=C(O)/C(=C/c2ccc(O)c(Br)c2)CCC1)c1ccccc1`, for which, at Cholinesterase [4], inhibition was half-maximal at 4.7 µM (IC50). Moreover, the inhibition entry in experiment [1] was “Active”. Besides, the inhibition entry in experiment [2] was “inactive”.
Regarding `O=C(C1=C(O)/C(=C/c2ccccc2Br)CCC1)c1ccccc1`, in experiment [1], the inhibition entry is “inactive”. In experiment [2], the inhibition result was “Active”. The IC50 against Acetylcholinesterase [3] worked out at 8.4 µM.
As to `O=C(C1=C(O)/C(=C/c2ccc(Br)cc2)CCC1)c1ccccc1`, the inhibition result in experiment [1] is “inactive”. Besides, the inhibition entry in experiment [2] is “Active”. The molecule also gave an IC50 against Acetylcholinesterase [3] of 8.7 µM.
Turning to `Cc1ccc(/C=C2\CCCC(C(=O)c3ccccc3)=C2O)cc1`, in experiment [1], the inhibition result is “inactive”. For the same molecule, in experiment [2], the inhibition result is “Active”. Moreover, half-maximal inhibition at Acetylcholinesterase [3] (IC50) required 8.5 µM.
For the molecule `COc1cccc(/C=C2\CCCC(C(=O)c3ccccc3)=C2O)c1OC`, the inhibition entry in experiment [1] and in experiment [2] was “inactive” each time.
For the molecule `O=C(C1=C(O)/C(=C/c2ccccc2)CCC1)c1ccccc1`, the inhibition result in experiment [1] and in experiment [2] was “inactive” throughout.
As to `O=C(C1=C(O)/C(=C/c2ccc(Cc3ccccc3)cc2)CCC1)c1ccccc1`, the inhibition result in experiment [1] is “inactive”. Further, the inhibition entry in experiment [2] is “Active”. Further, the IC50 at Acetylcholinesterase [3] was determined as 8.4 µM.
For `COc1ccc(/C=C2\CCCC(C(=O)c3ccccc3)=C2O)c(OC)c1OC`, the inhibition result in experiment [1] and in experiment [2] was “inactive” in each case.
As for `COc1cc(/C=C2\CCCC(C(=O)c3ccccc3)=C2O)cc(OC)c1OC`, the inhibition result in experiment [1] and in experiment [2] was “inactive” throughout.
On to `COc1cccc(/C=C2\CCCC(C(=O)c3ccccc3)=C2O)c1`, for which the inhibition result in experiment [1] was “inactive”. The inhibition result in experiment [2] is “Active”. The molecule also had an IC50 on Acetylcholinesterase [3] of 7.4 µM.
For `O=C(C1=C(O)/C(=C/c2cccc(OCCN3CCCCC3)c2)CCC1)c1ccccc1`, the IC50 worked out at 1.4 µM against Cholinesterase [4] and 3.1 µM on Acetylcholinesterase [3]. Besides, the inhibition entry in experiment [1] and in experiment [2] was “Active” in each case.
As to `O=C(C1=C(O)/C(=C/c2ccc(F)cc2)CCC1)c1ccccc1`, the inhibition entry in experiment [1] is “inactive”. In experiment [2], the inhibition entry was “Active”. The molecule further returned an IC50 against Acetylcholinesterase [3] of 6.6 µM.
In the same order, the values of `O=C(C1=C(O)/C(=C/c2cccc(Cl)c2Cl)CCC1)c1ccccc1` are “inactive”, “Active” and 5.9 µM.
In the same order, the values of `O=C(C1=C(O)/C(=C/c2ccc(Cl)cc2Cl)CCC1)c1ccccc1` are “inactive”, “Active” and 5.4 µM.
For the molecule `COc1ccccc1/C=C1\CCCC(C(=O)c2ccccc2)=C1O`, the inhibition entry in experiment [1] and in experiment [2] was “inactive” throughout.
As to `COc1ccc(/C=C2\CCCC(C(=O)c3ccccc3)=C2O)cc1`, the inhibition result in experiment [1] and in experiment [2] was “inactive” each time.
With `O=C(C1=C(O)/C(=C/c2cccc(Cc3ccccc3)c2)CCC1)c1ccccc1`, the inhibition result in experiment [1] is “inactive”. Moreover, in experiment [2], the inhibition entry was “Active”. At Acetylcholinesterase [3], this molecule had an IC50 of 7.8 µM.
With `COc1ccc(/C=C2\CCCC(C(=O)c3ccccc3)=C2O)cc1OC`, the inhibition entry in experiment [1] and in experiment [2] was “inactive” each time.
Consider `Cc1ccc(/C=C2\CCCC(C(=O)c3ccccc3)=C2O)s1`, for which, in experiment [1], the inhibition result was “inactive”. Further, in experiment [2], the inhibition result was “Active”. At Acetylcholinesterase [3], this molecule returned an IC50 of 5.9 µM.
In the same order, the values of `O=C(C1=C(O)/C(=C/c2ccc3ccccc3c2)CCC1)c1ccccc1` are “inactive”, “Active” and 8.3 µM.
Consider `O=C(C1=C(O)/C(=C/c2ccc(O)cc2)CCC1)c1ccccc1`, for which the inhibition result in experiment [1] and in experiment [2] was “inactive” in each case.

The record behind these values is ChEMBL document CHEMBL3813676, “2-Benzoyl-6-benzylidenecyclohexanone analogs as potent dual inhibitors of acetylcholinesterase and butyrylcholinesterase” (Bioorg Med Chem, 2016).
